This is an account of results in article PMC11124940, “Sweeteners Show a Plasticizing Effect on PVP K30—A Solution for the Hot-Melt Extrusion of Fixed-Dose Amorphous Curcumin-Hesperetin Solid Dispersions” (Pharmaceutics, 2024).

SMILES strings stand for the structures. Converted amounts (≈) assume the structure as drawn. Like-named read-outs stand apart in the source and are kept apart here.

Data set [1] can be described thus: PAMPA GIT permeability assay. Format: in vitro ADME. The settings on record: GIT model, donor pH ≈6.8, 4 h, 37 °C. How it is done:
(§1) The injection volume differed depending on the assay. […] The duration of the run was 10 min.

For data set [2] the following is noted: PAMPA, 4 h, pH 7.4. On the technique in general: The PAMPA barrier holds no transporters, so it reflects passive diffusion.
Protocol: Concentrations of curcumin and hesperetin in samples collected during solubility, dissolution, and permeability studies were determined using HPLC with the DAD detector (HPLC-DAD). Shimadzu Nexera (Shimadzu Corp., Kyoto, Japan) equipped with an SCL-40 system controller, a DGU-403 degassing unit, an LC-40B XR solvent delivery module, a SIL-40C autosampler, a CTO-40C column oven, and an SPD-M40 photodiode array detector were employed in this investigation. For the stationary phase, a Dr. Maisch ReproSil-Pur Basic-C18 100 Å column with 5 µm particle size and 250 × 4.60 mm (Dr. Maisch, Ammerbuch-Entringen, Germany) was used. The mobile phase was HPLC-grade methanol:0.1% acetic acid (80:20 v/v). The mobile phase was vacuum filtered through a 0.45 µm nylon filter (Phenomenex, Torrance, CA, USA). The experimental conditions were as follows: a 1.0 mL/min flow rate, a wavelength of 420 nm for curcumin and 288 nm for hesperetin, and a column temperature of 30 °C. The injection volume differed depending on the assay. For the solubility study, it was 2 µL, whereas for the dissolution and permeability assays, it was 10 µL. […]
In vitro, gastrointestinal (GIT) and blood–brain barrier (BBB) permeability was studied using the Parallel Artificial Membrane Permeability Assay (PAMPA) models. […] The results are expressed as a concentration of the compound in the acceptor solution.
Data set [3] in a line: Apparent solubility study (24 h, 25 °C, HPLC). The class given is physicochemical. How it is done: as §1
Phosphate buffer at pH 6.8 was prepared as follows: 250 mL of 0.2 N potassium dihydrogen phosphate solution was placed in a 1000 mL volumetric flask, and then 112 mL of 0.2 N sodium hydroxide solution was added. The volume was made up to 1000 mL with purified water. Hydrochloric acid solution pH 1.2 was prepared from the analytically weighed amount following the manufacturer’s (Alfachem, Poznań, Poland) recommendations.
An excess amount of powder (corresponding to 6 mg of each active substance) was placed in a 10 mL glass tube. Then, 2.0 mL of phosphate buffer (pH 6.8) or HCl solution (pH 1.2) was added and stirred at 100 rpm at room temperature (25 ± 0.1 °C) for 24 h.

Turning to `COc1cc(/C=C/C(=O)CC(=O)/C=C/c2ccc(O)c(OC)c2)ccc1O` [Curcumin], the “Curcumin Concentration in the acceptor solution” value in data set [1] is on record as 3.34 × 10^−6 ± 1.94 × 10^−6 c mg/mL; in data set [2], 1.86 × 10^−5 ± 2.48 × 10^−6 c mg/mL. In addition, the solubility at 24 h was 0.1 ± 0.01 µg/mL (≈ 0.271 µM) in data set [3] (HCl solution, pH 1.2 HCl, read-out: Curcumin Concentration (apparent solubility)) and 0.14 ± 0.02 µg/mL (≈ 0.38 µM) in data set [3] (aqueous buffer, thermodynamic from solid, pH 6.8 phosphate buffer, read-out: Curcumin Concentration (apparent solubility)).
With `COc1ccc([C@@H]2CC(=O)c3c(O)cc(O)cc3O2)cc1O` [Hesperetin], the “Hesperetin Concentration in the acceptor solution” value was 2.58 × 10^−5 ± 6.16 × 10^−6 c mg/mL in data set [1] and 3.89 × 10^−5 ± 1.66 × 10^−5 c mg/mL in data set [2]. The solubility at 24 h in data set [3] (HCl solution, simulated gastric fluid, thermodynamic from solid, pH 1.2 HCl, read-out: Hesperetin Concentration (apparent solubility)) was 4 ± 1 µg/mL (≈ 13.2 µM); in data set [3] (aqueous buffer, thermodynamic from solid, pH 6.8 phosphate buffer, read-out: Hesperetin Concentration (apparent solubility)) it was 5 ± 1 µg/mL (≈ 16.5 µM).
